This note sets out measurements from patent EP0950398A2, “Use of esters as dispersants or solvents in sunscreens and solar protection pigments” (Henkel Kommanditgesellschaft auf Aktien, priority 1998, dated 1999).

This data set in a line: UV absorption of 5 ppm Octylmethoxy Cinnamate dissolved in different oil bodies (absorption increase). In kind it is physicochemical. The settings on record: for Absorptionssteigerung: 5 ppm Octylmethoxy Cinnamate in the oil body, 1-cm cuvette, 308 nm, absorption in Mineralöl taken as 100 %. An excerpt: Zur Bestimmung der Absorptionssteigerung wurden Lösungen von 5 ppm Octylmethoxy Cinnamate in verschiedenen Ölkörpern hergestellt und die UV-Absorption in einer 1-cm Küvette bei einer Wellenlänge von 308 nm bestimmt. Die Absorption in Mineralöl wurde dazu als 100 % angenommen und alle übrigen Absorptionen dazu ins Verhältnis gesetzt. Des weiteren wurden verschiedene UV-Filter (OT = Octyl Triazone; BMDBM = Butyl Methoxydibenzoylmethane; B3 = Benzophenone-3 und 4MBC = 4-Methylbenzyliden Camphor) in den Ölkörpern in der Wärme gelöst und die Löslichkeit bei 15°C bestimmt. Die Ergebnisse sind in Tabelle 1 zusammengefaßt. Tabelle 1

`CCCCCCCCOCCCCCCCC` [Dicaprylyl Ether, reference compound] registered an Absorptionssteigerung of 105%.

With `CCCCOC(=O)CCCCC(=O)OCCCC` [Dibutyl Adipate], the Absorptionssteigerung worked out at 117%. Also, the “UV-Absorption unterstützt” value (result in words, comparison of all tested oil bodies) is “am stärksten”.
